Laboratory results published in PubChem BioAssay AID1918949 (Molecular Pharmacology Branch, DTP, NCI, 2023).
“And” between values parts separate entries of the source, which are not always exact repeats. Equal entries are not always repeated.

Test system: K24384-001-R-PDC complex spheroid viability
Test: Anticancer human tumor K24384-001-R-PDC patient-derived pancreatic adenocarcinoma cell line growth inhibition
Conditions: for viability, T/C: stronger effect = lower value
Description: Multicellular complex tumor spheroid response to LSD1 Inhibitor Iadademstat in combination with a variety of drugs and investigational agents in selected tumor cell lines
The current study was undertaken to assess response to LSD1 inhibitors in combination with standard-of-care drugs and investigational agents in solid tumor complex spheroid models as well as in the K-562 leukemia. Complex spheroids include a stromal component modeled by human endothelial cells (HUVEC) and fibroblasts modeled by human mesenchymal stem cells (MSCs). The concentration ranges selected for each drug and investigational agent were based upon clinically achievable concentrations if the clinical Cmax of the agent was known.
Compounds. The drugs and investigational agents used in this study are listed on Table 1. All of the agents used, including staurosporine (NSC755774) and gemcitabine (NSC613327), were obtained from the Developmental Therapeutics Program, NCI. FDA-approved anticancer drugs are available from the NCI at http://dtp.nci.nih.gov/branches/dscb/oncology_drugset_explanation.html. Drugs and investigational agents were >95% pure by proton nuclear magnetic resonance (NMR) and liquid chromatography/mass spectrometry (LC/MS). Stock solutions were prepared at 400x in DMSO, stored at -70 degrees C, and diluted in fresh medium prior to their use. The final concentration of DMSO in cell culture wells never exceeded 0.25% (v/v). The FDA-approved anticancer drug set is available from the Developmental Therapeutics Program at https://dtp.cancer.gov/organization/dscb/obtaining/available_plates.htm. All drugs and investigational agents were tested over a range starting from a high concentration at or near the clinical Cmax and decreasing in half-log increments. If the clinical Cmax for an agent had not been determined, the highest concentration tested was 10 microM.
Cell Lines. The patient-derived cancer cell (PDC) lines: 292921-168-R-J2-PDC, K24384-001-R-PDC, and 521955-158-R2-J5-PDC pancreatic carcinomas, 556581-035-R-J1 ovarian carcinoma, 324938-238-R-J1-PDC, 855422-203-R-J1-PDC and 883617-216-R-J1-PDC urothelial bladder carcinomas, 743489-274-T-PDC renal cell carcinoma, 138582-R-J1 Merkel cell tumor, K60290-347-R-J1 and K57222-313-R-J1-PDC glioblastomas, 653999-131-R-J2-PDC, LG0703-F948-PDC, and 349418-098-R-PDC non-small cell lung carcinomas, 885512-296-R-J2-PDC, 171881-019-R-J1-PDC breast carcinomas and 186277-243-T-J2-PDC and 233499-124-R-J2-PDC colon carcinomas were obtained from the NCI Patient-Derived Models Repository (PDMR, https://pdmr.cancer.gov). The established cell lines NCI/ADR-RES (RRID:CVCL_14520 and OVCAR-5 (RRID:CVCL_1628) ovarian carcinomas, 786-O (RRID:CVCL_1051) and A498 (RRID:CVCL_A498) renal cell carcinoma, NCI-H211 (ATCC, cat. CRL-5824; RRID:CVCL_1529), NCI-H196 (ATCC, cat. CRL-5823, RRID:CVCL_1509), SW 1271 (ATCC, cat. CRL-2177, RRID:CVCL_1716) and NCI-H1876 (ATCC, cat. CRL-5902, RRID:CVCL_1503) small cell lung carcinomas, MDA-MB-231 (RRID:CVCL_0062) and MDA-MB-468 (RRID:CVCL_0419)breast carcinomas (10-12). Pooled donor human umbilical vein endothelial cells (HUVEC, Lonza, cat. CC-2519) and human mesenchymal stem cells (hMSC, Lonza, cat. PT-2501) were purchased from Lonza (Walkersville, MD).
Cell Culture. All cells were maintained in an incubator at 37 degrees C and 5% CO2 with 95% humidity. The PDC lines were cultured according to standard operating procedures established by the NCI PDMR (https://pdmr.cancer.gov). Briefly all PDCs were thawed and cultured in Matrigel-coated flasks prepared with a working solution of 1X Ham's F-12 nutrient mix, without supplementation (Invitrogen, Waltham, MA, cat. 11765054), 100 U/mL penicillin-streptomycin (Invitrogen, cat. 15140122), and 2.5% Matrigel (Corning Inc., Corning, NY, cat. 354248) for the first three passages. […]

[1] = curve of first compound, second compound 0.1 µM
[2] = curve of first compound, second compound 0.316 µM
[3] = curve of first compound, second compound 1 µM
[4] = curve of first compound, second compound 3.16 µM
[5] = curve of first compound, second compound 10 µM
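Further: spheroids exposed to agents for seven days before luminescence viability reading.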
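Wherever viability, T/C is given: 100% = DMSO vehicle control viability.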

What does the source list for `COc1ccc([C@@H](O)c2cc(-c3ncnc4cc(N5CCOCC5)ccc34)c(F)cc2Cl)nn1`?
viability, T/C (compound 0.0316 µM): 102% and 111%; viability, T/C (compound 0.1 µM): 94.1% and 102%; viability, T/C (compound 0.316 µM): 94.3% and 82.1%; viability, T/C (compound 1 µM): 68.3% and 63.3%; viability, T/C (compound 3.16 µM): 39.1% and 44.5%; viability, T/C (compound 10 µM): 15.3% and 16.4%; IC50 (curve of compound): 2070 nM and 2110 nM

`COc1cc(C2c3cc4c(cc3C(OC3OC5COC(C)OC5C(O)C3O)C3COC(=O)C23)OCO4)cc(OC)c1O` (configuration not stated) + NC1CCC(NC2CC2c2ccccc2)CC1 was tested. Which IC50 [1] did it give?
The IC50 was 1330 nM.

What about the IC50 [2] of the same molecule?
The IC50 was 1860 nM.

And the IC50 [3]?
The IC50 was 2650 nM.

And the IC50 [4]?
Its IC50 is greater than 3000 nM.

What about the IC50 [5] of the same molecule?
The IC50 was 2620 nM.

What about the viability, T/C (second compound 0.1 µM, first compound 0.00949 µM) of the same molecule?
Its viability, T/C is 91.2%.

And the viability, T/C (second compound 0.1 µM, first compound 0.03 µM)?
The viability, T/C was 92.8%.

What about the viability, T/C (second compound 0.1 µM, first compound 0.0949 µM) of the same molecule?
The viability, T/C was 86.4%.

What about the viability, T/C (second compound 0.1 µM, first compound 0.3 µM) of the same molecule?
The viability, T/C was 65.3%.

And the viability, T/C (second compound 0.1 µM, first compound 0.949 µM)?
Its viability, T/C is 55.9%.

And the viability, T/C (second compound 0.1 µM, first compound 3 µM)?
Its viability, T/C is 42.8%.

And the viability, T/C (second compound 0.316 µM, first compound 0.00949 µM)?
The viability, T/C was 107%.

And the viability, T/C (second compound 0.316 µM, first compound 0.03 µM)?
Its viability, T/C is 83.3%.

What about the viability, T/C (second compound 0.316 µM, first compound 0.0949 µM) of the same molecule?
The viability, T/C was 79.7%.

What about the viability, T/C (second compound 0.316 µM, first compound 0.3 µM) of the same molecule?
Its viability, T/C is 75.7%.

What about the viability, T/C (second compound 0.316 µM, first compound 0.949 µM) of the same molecule?
Its viability, T/C is 57.2%.

What about the viability, T/C (second compound 0.316 µM, first compound 3 µM) of the same molecule?
The viability, T/C was 43.2%.

What about the viability, T/C (second compound 1 µM, first compound 0.00949 µM) of the same molecule?
Its viability, T/C is 98.4%.

What about the viability, T/C (second compound 1 µM, first compound 0.03 µM) of the same molecule?
The viability, T/C was 97.2%.

What about the viability, T/C (second compound 1 µM, first compound 0.0949 µM) of the same molecule?
The viability, T/C was 69.3%.

And the viability, T/C (second compound 1 µM, first compound 0.3 µM)?
The viability, T/C was 72.6%.

And the viability, T/C (second compound 1 µM, first compound 0.949 µM)?
The viability, T/C was 59.6%.

And the viability, T/C (second compound 1 µM, first compound 3 µM)?
The viability, T/C was 47.8%.

And the viability, T/C (second compound 3.16 µM, first compound 0.00949 µM)?
The viability, T/C was 87.8%.

And the viability, T/C (second compound 3.16 µM, first compound 0.03 µM)?
The viability, T/C was 102%.

And the viability, T/C (second compound 3.16 µM, first compound 0.0949 µM)?
The viability, T/C was 67.9%.

And the viability, T/C (second compound 3.16 µM, first compound 0.3 µM)?
The viability, T/C was 65%.

What about the viability, T/C (second compound 3.16 µM, first compound 0.949 µM) of the same molecule?
Its viability, T/C is 57.9%.

And the viability, T/C (second compound 3.16 µM, first compound 3 µM)?
The viability, T/C was 54%.

And the viability, T/C (second compound 10 µM, first compound 0.00949 µM)?
The viability, T/C was 88.2%.

What about the viability, T/C (second compound 10 µM, first compound 0.03 µM) of the same molecule?
Its viability, T/C is 98.4%.

What about the viability, T/C (second compound 10 µM, first compound 0.0949 µM) of the same molecule?
Its viability, T/C is 90.1%.

What about the viability, T/C (second compound 10 µM, first compound 0.3 µM) of the same molecule?
The viability, T/C was 73.2%.

What about the viability, T/C (second compound 10 µM, first compound 0.949 µM) of the same molecule?
The viability, T/C was 66%.

What about the viability, T/C (second compound 10 µM, first compound 3 µM) of the same molecule?
Its viability, T/C is 47.4%.

What does the source list for `Nc1ncn(C2CC(O)C(CO)O2)c(=O)n1` (configuration not stated) + NC1CCC(NC2CC2c2ccccc2)CC1?
IC50 [1]: > 1000 nM; IC50 [2]: > 1000 nM; IC50 [3]: > 1000 nM; IC50 [4]: > 1000 nM; IC50 [5]: > 1000 nM; viability, T/C (second compound 0.1 µM, first compound 0.00316 µM): 78.3%; viability, T/C (second compound 0.1 µM, first compound 0.01 µM): 93.8%; viability, T/C (second compound 0.1 µM, first compound 0.0316 µM): 80.4%; viability, T/C (second compound 0.1 µM, first compound 0.1 µM): 73.6%; viability, T/C (second compound 0.1 µM, first compound 0.316 µM): 79.5%; viability, T/C (second compound 0.1 µM, first compound 1 µM): 73.5%; viability, T/C (second compound 0.316 µM, first compound 0.00316 µM): 88%; viability, T/C (second compound 0.316 µM, first compound 0.01 µM): 79.4%; viability, T/C (second compound 0.316 µM, first compound 0.0316 µM): 87.4%; viability, T/C (second compound 0.316 µM, first compound 0.1 µM): 82.5%; viability, T/C (second compound 0.316 µM, first compound 0.316 µM): 76.2%; viability, T/C (second compound 0.316 µM, first compound 1 µM): 85.1%; viability, T/C (second compound 1 µM, first compound 0.00316 µM): 88.4%; viability, T/C (second compound 1 µM, first compound 0.01 µM): 80.5%; viability, T/C (second compound 1 µM, first compound 0.0316 µM): 82.6%; viability, T/C (second compound 1 µM, first compound 0.1 µM): 68.3%; viability, T/C (second compound 1 µM, first compound 0.316 µM): 78.6%; viability, T/C (second compound 1 µM, first compound 1 µM): 70.1%; viability, T/C (second compound 3.16 µM, first compound 0.00316 µM): 89.8%; viability, T/C (second compound 3.16 µM, first compound 0.01 µM): 88%; viability, T/C (second compound 3.16 µM, first compound 0.0316 µM): 105%; viability, T/C (second compound 3.16 µM, first compound 0.1 µM): 76.6%; viability, T/C (second compound 3.16 µM, first compound 0.316 µM): 59.7%; viability, T/C (second compound 3.16 µM, first compound 1 µM): 60.9%; viability, T/C (second compound 10 µM, first compound 0.00316 µM): 92.9%; viability, T/C (second compound 10 µM, first compound 0.01 µM): 83.8%; viability, T/C (second compound 10 µM, first compound 0.0316 µM): 87.8%; viability, T/C (second compound 10 µM, first compound 0.1 µM): 63.2%; viability, T/C (second compound 10 µM, first compound 0.316 µM): 73.7%; viability, T/C (second compound 10 µM, first compound 1 µM): 72.7%
